Where two headings read alike, the source gives them in different places.
Key:
Format in all cases: cell-based
β1-adrenergic receptor = β1-adrenergic receptor (Homo sapiens (Human), UniProt P08588); assay: cAMP Gs dynamic HTRF assay, β1 expressing CHO cells; conditions: B1-AR
Outline: (§1)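 Intracellular cAMP quantified by Eu-donor/d2-acceptor HTRF after 30 min compound exposure at 37° C in stimulation buffer with IBMX. Concentrations ran 10 μM top, 5-fold steps, 10 points. Cell lines: 1321N1 astrocytoma and CHO expressing β1 or β2; EC50 via four-parameter fit, relative efficacy against isoproterenol.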

β2 adrenergic receptor = β2 adrenergic receptor (Homo sapiens (Human), UniProt P07550); assay: cAMP Gs dynamic HTRF assay, β2 expressing CHO cells; conditions: B2-AR
Outline: as §1

[1] = target: β2 adrenergic receptors in human astrocytoma cells (1321N1) (Homo sapiens (Human), UniProt P07550); assay: cAMP HTRF assay in human astrocytoma cells (1321N1)
Method: cAMP homogeneous time-resolved fluorescence (HTRF). Compound efficacy was determined using the cAMP Gs dynamic HTRF assay (Cisbio, catalog #62AM4PEC) largely following the manufacturer's instructions, also detailed below.
Compound preparation. […] Standard serial dilution curves were 10-point, 5-fold dilutions starting from a highest concentration of 10 μM. […] Assay plates were centrifuged at 500×g for 10 seconds. Compounds and IBMX were prepared at 2× final dose to compensate for addition of cells.
Cell preparation. 1× stimulation buffer, washing PBS (Dulbecco's phosphate-buffered saline, −Mg −Ca; Caisson Labs, catalog #PBL01), assay PBS (Dulbecco's phosphate-buffered saline, +Mg, +Ca; Caisson Labs, catalog #PBL02) and Versene (0.02% EDTA disodium salt solution in PBS without calcium or magnesium; Caisson Labs, catalog #EDL01) were pre-warmed to 37° C. Cells expressing beta-adrenergic receptor were washed in washing PBS to remove growth medium and then released from the surface by incubating with Versene for 5-10 minutes at 37° C. Cells were harvested using assay PBS, counted manually by hemocytometer or by an automated cell counter, pelleted by centrifugation (200×g, 5 minutes) and resuspended in 37° C. 1× stimulation buffer to a final density of 1.5×10^6 cells/mL. 5 μL of the suspended cell solution (7500 cell total) were added to all wells of the 384 well assay plate, the assay plate was covered with an Axygen® plate seal (Corning PCR-SP) and incubated in a humidified 37° C. environment supplemented with 5% CO2 for 30 minutes.
HTRF reagent addition, reading and data analysis. After 30 minutes of cell stimulation with test compound, the assay plates were centrifuged at 500×g for 10 seconds, and incubation was stopped with the addition of 5 μL cAMP-D2 acceptor, diluted 1:21 in detection and lysis buffer 2 (Cisbio 62CL2FDF) was added to all cells. Subsequently, 5 μL Anti-cAMP-Eu Donor, diluted 1:21 in detection and lysis buffer 2, was added to cells. Plates were sealed and reactions gently ‘vortexed’ at 900 rpm on a Heidolph Titramax 1000 for at least 30 minutes at room temperature. Plates were centrifuged again at 500×g for 10 seconds, and HTRF was measured using a Tecan Spark plate reader at 50 flashes per well. […] Potency estimates (EC50) were derived from the four-parameter nonlinear regression of the concentration-effect curve and an estimate of relative efficacy was determined by comparing the magnitude of the test compound HTRF signal window (min−max dose) with the signal window of the full agonist control, isoproterenol.

B3-AR = B3-AR (Homo sapiens (Human), UniProt P13945); assay: cAMP potency assay, B3-AR expressing CHO-K1 cells; conditions: read-out: Average pEC50 [Receptor subtype: B3-AR, Cell type: CHO-K1] (converted)
[2] = CHO-K1 (HitHunter), read-out: Average pEC50 [Receptor subtype: B1-AR, Cell type: CHO-K1 (HitHunter)] (converted)
[3] = CHO-K1 (HitHunter), read-out: Average pEC50 [Receptor subtype: B2-AR, Cell type: CHO-K1 (HitHunter)] (converted)
[4] = Endogenous receptor, 1321N1 cells, read-out: Average pEC50 [Receptor subtype: Endogenous, Cell type: 1321N1] (converted)
[5] = Average pEC50 [Receptor subtype: B1-AR, Cell type: CHO-K1 (HitHunter)], CHO-K1 (HitHunter)
[6] = Average pEC50 [Receptor subtype: B2-AR, Cell type: CHO-K1 (HitHunter)], CHO-K1 (HitHunter)
[7] = CHO-K cells, read-out: Average EC50 [Receptor subtype: B1-AR, Cell type: CHO-K]
[8] = CHO-K cells, read-out: Average EC50 [Receptor subtype: B2-AR, Cell type: CHO-K]

Sequence of β2 adrenergic receptors in human astrocytoma cells (1321N1) (P07550 whole entry): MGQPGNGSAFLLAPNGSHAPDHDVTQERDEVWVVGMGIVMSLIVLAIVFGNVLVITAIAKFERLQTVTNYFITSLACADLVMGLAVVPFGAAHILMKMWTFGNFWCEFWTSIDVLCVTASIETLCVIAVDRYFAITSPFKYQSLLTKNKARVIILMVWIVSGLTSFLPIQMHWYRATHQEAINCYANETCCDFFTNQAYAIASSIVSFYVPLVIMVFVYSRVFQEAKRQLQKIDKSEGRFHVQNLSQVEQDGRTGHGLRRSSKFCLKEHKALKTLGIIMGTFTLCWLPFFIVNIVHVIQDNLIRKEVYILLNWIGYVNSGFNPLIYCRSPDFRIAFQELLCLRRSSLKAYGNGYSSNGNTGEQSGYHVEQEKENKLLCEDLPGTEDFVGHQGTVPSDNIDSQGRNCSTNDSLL
Sequence of β2 adrenergic receptor (P07550 whole entry, species assumed): as the sequence (P07550 whole entry) above
Sequence of β1-adrenergic receptor (P08588 whole entry, species assumed): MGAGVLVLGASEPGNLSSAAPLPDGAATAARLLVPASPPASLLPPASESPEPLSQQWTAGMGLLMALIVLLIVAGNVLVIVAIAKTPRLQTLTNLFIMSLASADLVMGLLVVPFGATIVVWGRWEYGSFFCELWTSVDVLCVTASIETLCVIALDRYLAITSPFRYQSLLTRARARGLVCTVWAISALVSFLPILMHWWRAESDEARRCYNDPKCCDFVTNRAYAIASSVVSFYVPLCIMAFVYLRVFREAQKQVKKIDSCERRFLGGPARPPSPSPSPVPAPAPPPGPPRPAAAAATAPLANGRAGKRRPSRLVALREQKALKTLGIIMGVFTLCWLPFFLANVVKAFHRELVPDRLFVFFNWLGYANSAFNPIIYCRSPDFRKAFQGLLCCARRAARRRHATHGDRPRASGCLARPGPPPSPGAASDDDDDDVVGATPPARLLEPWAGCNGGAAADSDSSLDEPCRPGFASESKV
Sequence of B3-AR (P13945 whole entry, species assumed): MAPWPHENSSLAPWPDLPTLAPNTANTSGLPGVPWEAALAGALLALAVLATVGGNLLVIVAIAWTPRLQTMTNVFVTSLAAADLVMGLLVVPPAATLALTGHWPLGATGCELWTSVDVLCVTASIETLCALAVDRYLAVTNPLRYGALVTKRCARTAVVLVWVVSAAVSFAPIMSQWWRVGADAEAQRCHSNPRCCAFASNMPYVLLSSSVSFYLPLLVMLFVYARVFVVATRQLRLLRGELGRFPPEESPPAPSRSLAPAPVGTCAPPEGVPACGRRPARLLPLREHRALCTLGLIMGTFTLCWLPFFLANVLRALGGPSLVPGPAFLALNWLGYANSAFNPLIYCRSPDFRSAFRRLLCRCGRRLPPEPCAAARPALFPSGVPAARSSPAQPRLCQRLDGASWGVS

| Compound | EC50 (β1-adrenergic receptor; [2]) [nM] | EC50 (β2 adrenergic receptor; [3]) [nM] | EC50 [1, 4] [nM] | other results |
| --- | --- | --- | --- | --- |
| CC(C)(C)NC[C@H](O)c1cccc(NC2CC(F)C2)n1 (stereo partly drawn) [Compound 03-272] | < 10 | < 10 | < 10 | – |
| CCc1ncccc1[C@@H](O)CNC(C)(C)C [Compound 03-52] | > 1000 | 100 to 1000 | > 1000 | EC50 (B3-AR): > 1000 nM |
| Cc1ccc([C@@H](O)CNC(C)(C)C)c(C)n1 [Compound 03-67] | 100 to 1000 | < 10 | 10 to 100 | – |
| CC(C)(C)NC[C@H](O)c1cccc(Oc2ccccc2)n1 [Compound 03-195] | 100 to 1000 | 10 to 100 | 10 to 100 | – |
| CC(C)(C)NC[C@H](O)c1cccc(NC2CCC2)n1 [Compound 03-190] | 10 to 100 | < 10 | < 10 | – |
| CC(C)(C)NC[C@H](O)c1cc(F)cnc1C1CCCC1 [Compound 03-80] | > 1000 | 10 to 100 | 100 to 1000 | – |
| Cn1cc(-c2cccc([C@@H](O)CNC(C)(C)C)n2)cn1 [Compound 03-215] | 100 to 1000 | < 10 | 10 to 100 | – |
| CC(C)(C)NC[C@H](O)c1cccc(-n2ccnn2)n1 [Compound 03-102] | 100 to 1000 | 10 to 100 | 10 to 100 | – |
| COc1ccc(C[C@@H](C)NC[C@H](O)c2cccnc2C2CCCC2)cc1 [Compound 03-64] | – | – | – | EC50 (β1-adrenergic receptor; [5]): > 1000 nM; EC50 (β2 adrenergic receptor; [6]): 100 to 1000 nM; EC50 [1]: 100 to 1000 nM |
| CC(C)(C)NC[C@H](O)c1cccc(C2CCOCC2)n1 [Compound 03-121] | 100 to 1000 | < 10 | < 10 | EC50 (β1-adrenergic receptor; [7]): 10 to 100 nM; EC50 (β2 adrenergic receptor; [8]): < 10 nM |
| CC(C)(C)NC[C@H](O)c1cccc(NC2CC2)n1 [Compound 03-189] | 10 to 100 | < 10 | 10 to 100 | – |
| C=CCc1ncccc1[C@@H](O)CNC(C)(C)C [Compound 03-243] | > 1000 | 10 to 100 | 100 to 1000 | – |
| CC(C)(C)NC[C@H](O)c1cccc(C2CCCC2)n1 [Compound 03-237] | 10 to 100 | < 10 | < 10 | – |
| CC(C)(C)NC[C@H](O)c1cccnc1C1CC1 [Compound 03-54] | 100 to 1000 | 10 to 100 | – | EC50 (β1-adrenergic receptor; [7]): 100 to 1000 nM; EC50 (β2 adrenergic receptor; [8]): 10 to 100 nM; Average pEC50 [Receptor subtype: Endogenous; Cell type: 1321N1] ([1]; Endogenous receptor, 1321N1 cells): C (C = <7-6); EC50 ([1]; Endogenous receptor, 1321N1 cells, read-out: Average EC50 [Receptor subtype: Endogenous, Cell type: 1321N1]): 100 to 1000 nM |
| CC(C)(C)NC[C@H](O)c1cccc(C2=CCCC2)n1 [Compound 03-197] | 10 to 100 | < 10 | < 10 | – |
| CC(C)(C)NC[C@H](O)c1cccc(-n2nccn2)n1 [Compound 03-101] | > 1000 | 10 to 100 | 100 to 1000 | – |
| Cc1ncc(Cl)cc1[C@@H](O)CNC(C)(C)C [Compound 03-267] | 100 to 1000 | 10 to 100 | 100 to 1000 | – |
| CC(C)(C)NC[C@@H](O)c1ccnc(C#N)c1 [Compound 03-111] | > 1000 | 10 to 100 | 100 to 1000 | – |
| CC(C)Nc1cccc([C@@H](O)CNC(C)(C)C)n1 [Compound 03-192] | 10 to 100 | < 10 | 10 to 100 | – |
| CC(C)(C)NC[C@H](O)c1cc(F)cnc1C1=CCCC1 [Compound 03-89] | > 1000 | 100 to 1000 | > 1000 | – |
| CC(C)(C)NC[C@H](O)c1cccnc1OC(F)(F)F [Compound 03-70] | 100 to 1000 | 10 to 100 | 10 to 100 | – |
| COc1ccc(C[C@@H](C)NC[C@H](O)c2cccnc2C2=CCCC2)cc1 [Compound 03-63] | – | – | – | EC50 (β1-adrenergic receptor; [5]): > 1000 nM; EC50 (β2 adrenergic receptor; [6]): 100 to 1000 nM; EC50 [1]: > 1000 nM |

| Compound | EC50 (β1-adrenergic receptor; [2]) [nM] | EC50 (β2 adrenergic receptor; [3]) [nM] | EC50 [1, 4] [nM] | other results |
| --- | --- | --- | --- | --- |
| CC(C)(C)NC[C@@H](O)c1cccc(-n2ccnc2)n1 [Compound 03-228] | 10 to 100 | < 10 | < 10 | – |
| COc1ccc(C[C@@H](C)NC[C@H](O)c2ccc(OC)nc2C)cc1 [Compound 03-253] | – | – | – | EC50 (β1-adrenergic receptor; [5]): > 1000 nM; EC50 (β2 adrenergic receptor; [6]): 10 to 100 nM; EC50 [1]: 100 to 1000 nM |
| CC(C)(CO)NC[C@H](O)c1cccc(C#N)n1 [Compound 03-104] | 100 to 1000 | 100 to 1000 | 100 to 1000 | – |
| COc1ccc(C[C@@H](C)NC[C@H](O)c2cccnc2C)cc1 [Compound 03-66] | 10 to 100 | < 10 | 100 to 1000 | – |
| CC(C)(C)NC[C@H](O)c1cccnc1OC1CCC1 [Compound 03-72] | 10 to 100 | < 10 | 10 to 100 | – |
| CC(C)(C)NC[C@H](O)c1cccc(C(C)(C)C)n1 [Compound 03-209] | < 10 | < 10 | < 10 | – |
| CC(C)(C)NC[C@H](O)c1cccc(-c2ccc[nH]2)n1 [Compound 03-95] | < 10 | < 10 | < 10 | – |
| Cc1ccc([C@@H](O)CNC(C)(C)C)cn1 [Compound 03-248] | 10 to 100 | 10 to 100 | 10 to 100 | – |
| CC(C)(C)NC[C@H](O)c1cccc(Nc2ccccc2)n1 [Compound 03-193] | < 10 | < 10 | < 10 | – |
| CC(C)(C)NC[C@H](O)c1cccc(NC2CCCC2)n1 [Compound 03-191] | 10 to 100 | < 10 | < 10 | – |
| COc1ccc(C[C@@H](C)NC[C@H](O)c2ccc(C)nc2)cc1 [Compound 03-249] | < 10 | < 10 | < 10 | – |
| CNc1cccc([C@H](O)CNC(C)(C)C)n1 [Compound 03-142] | > 1000 | 100 to 1000 | > 1000 | EC50 (β1-adrenergic receptor; [7]): > 1000 nM; EC50 (β2 adrenergic receptor; [8]): 100 to 1000 nM |
| C#Cc1cccc([C@H](O)CNC(C)(C)C)n1 [Compound 03-238] | 100 to 1000 | 10 to 100 | 100 to 1000 | – |
| Cc1cccc([C@@H](O)CNC(C)(C)C)n1 [Compound 03-6] | 10 to 100 | 10 to 100 | 100 to 1000 | EC50 (β1-adrenergic receptor; [7]): 10 to 100 nM; EC50 (β2 adrenergic receptor; [8]): 10 to 100 nM |
| CC(C)(C)NC[C@H](O)c1cccnc1OC1CC1 [Compound 03-71] | 100 to 1000 | 10 to 100 | 10 to 100 | – |
| CN(C)c1cccc([C@@H](O)CNC(C)(C)C)n1 [Compound 03-153] | 10 to 100 | < 10 | 10 to 100 | EC50 (β1-adrenergic receptor; [7]): 10 to 100 nM; EC50 (β2 adrenergic receptor; [8]): < 10 nM |
| CC(C)(C)NC[C@H](O)c1cccc(-n2cccc2)n1 [Compound 03-123] | – | < 10 | < 10 | Average pEC50 [Receptor subtype: B1-AR; Cell type: CHO-K1 (HitHunter)] (β1-adrenergic receptor; CHO-K1 (HitHunter)): A (A > 8); EC50 (β1-adrenergic receptor; [7]): < 10 nM; EC50 (β2 adrenergic receptor; [8]): < 10 nM |
| COc1ccc(C[C@@H](C)NC[C@H](O)c2cccc(OC(F)(F)F)n2)cc1 [Compound 03-257] | 10 to 100 | < 10 | < 10 | – |
| CC(C)(C)NC[C@@H](O)c1cccc(Cl)n1 [Compound 03-230] | 10 to 100 | 10 to 100 | 100 to 1000 | – |
| CC(C)(C)NC[C@@H](O)c1cccc(C2CCC2)n1 [Compound 03-162] | – | 10 to 100 | 100 to 1000 | Average pEC50 [Receptor subtype: B1-AR; Cell type: CHO-K1 (HitHunter)] (β1-adrenergic receptor; CHO-K1 (HitHunter)): D (D < 6); EC50 (β1-adrenergic receptor; [7]): > 1000 nM; EC50 (β2 adrenergic receptor; [8]): 10 to 100 nM |
| CC(C)(C)NCC(O)c1cc(C#N)cc(C(F)(F)F)n1 (stereo not drawn) [Compound 03-181] | > 1000 | 100 to 1000 | 100 to 1000 | EC50 (β1-adrenergic receptor; [7]): > 1000 nM; EC50 (β2 adrenergic receptor; [8]): 100 to 1000 nM |

— patent US10947196B2, “Beta adrenergic agonist and methods of using the same” (CURASEN THERAPEUTICS, INC., priority 2019, dated 2021)
